US9073830B2 (Hyundai Pharm Co., Ltd., priority 2011, dated 2015)

Assays:
human 11β-HSD1 = biological target: T1, human 11β-HSD1 (Homo sapiens, UniProt P28845); assay: Enzyme activity analysis on human 11β-HSD1 (HTRF cortisol, liver microsomes); assay type: biochemical; conditions: first value of cell
T1 construct: 100 ug/ml human/mouse liver microsomes; from tissue; host or cells: human liver microsomes
How it was run: (§1)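 Cortisol generated by mouse or human liver microsome 11β-HSD1 during 2 h at 37° C., measured by HTRF competition (cryptate anti-cortisol antibody, d2-cortisol, 2 h room temperature) against a cortisol standard curve. IC50 from percent inhibition versus no-compound control.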

mouse 11β-HSD1 = biological target: T2, mouse 11β-HSD1 (Mus musculus, UniProt P50172); assay: Enzyme activity analysis on mouse 11β-HSD1 (HTRF cortisol, liver microsomes); assay type: biochemical; conditions: second value of cell
T2 construct: 100 ug/ml human/mouse liver microsomes; from tissue; host or cells: mouse liver microsomes
How it was run: as §1

T1 sequence (P28845 whole entry): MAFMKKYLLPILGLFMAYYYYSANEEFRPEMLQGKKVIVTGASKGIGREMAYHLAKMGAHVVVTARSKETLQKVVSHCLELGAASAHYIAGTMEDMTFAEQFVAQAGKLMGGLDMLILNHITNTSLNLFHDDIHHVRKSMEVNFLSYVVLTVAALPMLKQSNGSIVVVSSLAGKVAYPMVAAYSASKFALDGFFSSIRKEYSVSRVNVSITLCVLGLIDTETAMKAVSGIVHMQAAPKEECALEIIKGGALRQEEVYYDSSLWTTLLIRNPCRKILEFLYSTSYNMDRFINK
T2 sequence (P50172 whole entry): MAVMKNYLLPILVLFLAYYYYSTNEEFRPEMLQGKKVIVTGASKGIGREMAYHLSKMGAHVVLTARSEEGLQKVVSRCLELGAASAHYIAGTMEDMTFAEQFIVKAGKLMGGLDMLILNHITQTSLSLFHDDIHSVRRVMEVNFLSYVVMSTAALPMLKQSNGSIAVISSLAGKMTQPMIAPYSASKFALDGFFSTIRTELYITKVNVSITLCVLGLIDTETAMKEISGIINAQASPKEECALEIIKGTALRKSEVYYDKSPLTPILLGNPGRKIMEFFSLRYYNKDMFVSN

SMILES | IC50 (human 11β-HSD1) | IC50 (mouse 11β-HSD1)
CC(C)(NS(=O)(=O)c1cccc(Br)c1)C(=O)NC1C2CC3CC1CC(C(N)=O)(C3)C2 (stereo not drawn) [compound 123] | 0.139 µM | 0.291 µM
CC(C)(NS(=O)(=O)c1ccc(C(F)(F)F)cc1)C(=O)NC1C2CC3CC1CC(C(N)=O)(C3)C2 (stereo not drawn) [compound 126] | 0.182 µM | 0.455 µM
COc1ccc(S(=O)(=O)NC(C)(C)C(=O)NC2C3CC4CC2CC(C(N)=O)(C4)C3)c(OC)c1 (stereo not drawn) [compound 129] | 0.096 µM | 0.589 µM
O=C(NC1C2CC3CC(C2)CC1C3)C1(NS(=O)(=O)c2ccccc2[N+](=O)[O-])CCC1 (stereo not drawn) [compound 137, N-(adamantane-2-yl)-1-(2-nitrophenylsulfonamido)cyclobutanecarboxyamide] | 0.255 µM | 1.1 µM
O=C(NC1C2CC3CC(C2)CC1C3)C1(NS(=O)(=O)c2ccccc2Br)CCC1 (stereo not drawn) [compound 138, N-(adamantane-2-yl)-1-(2-bromophenylsulfonamido)cyclobutanecarboxyamide] | 0.113 µM | 0.806 µM
O=C(NC1C2CC3CC(C2)CC1C3)C1(NS(=O)(=O)c2ccccc2)CCC1 (stereo not drawn) [compound 139] | 0.547 µM | 0.178 µM
O=C(NC1C2CC3CC(C2)CC1C3)C1(NS(=O)(=O)c2ccccc2C(F)(F)F)CCC1 (stereo not drawn) [compound 140, N-(adamantane-2-yl)-1-(2-trifluoromethylphenylsulfonamido)cyclobutanecarboxyamide] | 0.184 µM | 1.68 µM
O=C(NC1C2CC3CC(C2)CC1C3)C1(NS(=O)(=O)c2cccc3cccnc23)CCC1 (stereo not drawn) [compound 141, N-(adamantane-2-yl)-1-(quinoline-8-sulfonamido)cyclobutanecarboxyamide] | 0.139 µM | 0.208 µM
O=C(NC1C2CC3CC(C2)CC1C3)C1(NS(=O)(=O)c2cccc([N+](=O)[O-])c2)CCC1 (stereo not drawn) [compound 142, N-(adamantane-2-yl)-1-(3-nitrophenylsulfonamido)cyclobutanecarboxyamide] | > 2.5 µM | 1.44 µM
O=C(NC1C2CC3CC(C2)CC1C3)C1(NS(=O)(=O)c2ccc([N+](=O)[O-])cc2)CCC1 (stereo not drawn) [compound 143, N-(adamantane-2-yl)-1-(4-nitrophenylsulfonamido)cyclobutanecarboxyamide] | > 2.5 µM | > 2.5 µM
O=C(NC1C2CC3CC(C2)CC1C3)C1(NS(=O)(=O)c2ccccc2OC(F)(F)F)CCC1 (stereo not drawn) [compound 144, N-(adamantane-2-yl)-1-(2-trifluoromethoxyphenylsulfonamido)cyclobutanecarboxyamide] | 0.265 µM | 1.82 µM
NC(=O)C12CC3CC(C1)C(NC(=O)C1(NS(=O)(=O)c4ccccc4[N+](=O)[O-])CCC1)C(C3)C2 (stereo not drawn) [compound 145, N-4-(1-(2-nitrophenylsulfonamido)cyclobutanecarboxyamido)adamantane-1-carboxyamide] | 0.08 µM | 0.509 µM
NC(=O)C12CC3CC(C1)C(NC(=O)C1(NS(=O)(=O)c4ccc([N+](=O)[O-])c(C(F)(F)F)c4)CCC1)C(C3)C2 (stereo not drawn) [compound 147, N-4-(1-(3-trifluoromethyl-4-nitrophenylsulfonamido)cyclobutanecarboxyamido)adamantane-1-carboxyamide] | 1.3 µM | 0.505 µM
NC(=O)C12CC3CC(C1)C(NC(=O)C1(NS(=O)(=O)c4ccccc4)CCC1)C(C3)C2 (stereo not drawn) [compound 148, N-4-(1-(phenylsulfonamido)cyclobutanecarboxyamido)adamantane-1-carboxyamide] | 0.163 µM | 0.056 µM
Cc1ccc(S(=O)(=O)NC2(C(=O)NC3C4CC5CC3CC(C(N)=O)(C5)C4)CCC2)cc1[N+](=O)[O-] (stereo not drawn) [compound 150, N-4-(1-(3-nitro-4-methylphenylsulfonamido)cyclobutanecarboxyamido)adamantane-1-carboxyamide] | 0.639 µM | 0.187 µM
Cc1ccc(S(=O)(=O)NC2(C(=O)NC3C4CC5CC3CC(C(N)=O)(C5)C4)CCC2)cc1F (stereo not drawn) [compound 151, N-4-(1-(3-fluoro-4-methylphenylsulfonamido)cyclobutanecarboxyamido)adamantane-1-carboxyamide] | 0.182 µM | 0.062 µM
COc1ccc(S(=O)(=O)NC2(C(=O)NC3C4CC5CC3CC(C(N)=O)(C5)C4)CCC2)cc1F (stereo not drawn) [compound 154, N-4-(1-(3-fluoro-4-methoxyphenylsulfonamido)cyclobutanecarboxyamido)adamantane-1-carboxyamide] | 1.63 µM | 0.565 µM
NC(=O)C12CC3CC(C1)C(NC(=O)C1(NS(=O)(=O)c4cccc(Cl)c4F)CCC1)C(C3)C2 (stereo not drawn) [compound 159, N-4-(1-(2-fluoro-3-chlorophenylsulfonamido)cyclobutanecarboxyamido)adamantane-1-carboxyamide] | 0.096 µM | 0.126 µM

Continued, values first:

IC50 (human 11β-HSD1) | IC50 (mouse 11β-HSD1) | SMILES
0.024 µM | 0.22 µM | CC(C)(NS(=O)(=O)c1ccc(Br)cc1)C(=O)NC1C2CC3CC1CC(C(N)=O)(C3)C2 (stereo not drawn) [compound 124]
0.021 µM | 0.168 µM | CC(C)(NS(=O)(=O)c1cc(Cl)cc(Br)c1)C(=O)NC1C2CC3CC1CC(C(N)=O)(C3)C2 (stereo not drawn) [compound 125]
0.062 µM | 0.053 µM | CC(C)(NS(=O)(=O)c1cccc(C(F)(F)F)c1)C(=O)NC1C2CC3CC1CC(C(N)=O)(C3)C2 (stereo not drawn) [compound 127]
0.076 µM | 0.22 µM | COc1cc([N+](=O)[O-])ccc1S(=O)(=O)NC(C)(C)C(=O)NC1C2CC3CC1CC(C(N)=O)(C3)C2 (stereo not drawn) [compound 128]
0.078 µM | 0.405 µM | CC(C)(NS(=O)(=O)c1ccccc1C#N)C(=O)NC1C2CC3CC1CC(C(N)=O)(C3)C2 (stereo not drawn) [compound 130, 4-[2-(2-cyano-benzenesulfonylamino)-2-methyl-propionylamino]-adamantane-1-carboxylic acid amide]
0.008 µM | 0.048 µM | NC(=O)C12CC3CC(C1)C(NC(=O)C1(NS(=O)(=O)c4ccccc4Br)CC1)C(C3)C2 (stereo not drawn) [compound 131, N-4-(1-(2-bromophenylsulfonamido)cyclopropanecarboxyamido)adamantane-1-carboxyamide]
0.037 µM | 0.148 µM | NC(=O)C12CC3CC(C1)C(NC(=O)C1(NS(=O)(=O)c4ccccc4Cl)CC1)C(C3)C2 (stereo not drawn) [compound 132, N-4-(1-(2-chlorophenylsulfonamido)cyclopropanecarboxyamido)adamantane-1-carboxyamide]
0.015 µM | 0.074 µM | Cc1c(Cl)cccc1S(=O)(=O)NC1(C(=O)NC2C3CC4CC2CC(C(N)=O)(C4)C3)CC1 (stereo not drawn) [compound 133, N-4-(1-(2-methyl-3-chlorophenylsulfonamido)cyclopropanecarboxyamido)adamantane-1-carboxyamide]
0.021 µM | 0.021 µM | NC(=O)C12CC3CC(C1)C(NC(=O)C1(NS(=O)(=O)c4c(Cl)cccc4Cl)CC1)C(C3)C2 (stereo not drawn) [compound 134, N-4-(1-(2,6-dichlorophenylsulfonamido)cyclopropanecarboxyamido)adamantane-1-carboxyamide]
0.042 µM | 0.02 µM | NC(=O)C12CC3CC(C1)C(NC(=O)C1(NS(=O)(=O)c4cccc5cccnc45)CC1)C(C3)C2 (stereo not drawn) [compound 135, N-4-(1-(quinoline-8-sulfonamido)cyclopropanecarboxyamido)adamantane-1-carboxyamide]
0.009 µM | 0.028 µM | NC(=O)C12CC3CC(C1)C(NC(=O)C1(NS(=O)(=O)c4cccc(Cl)c4Cl)CC1)C(C3)C2 (stereo not drawn) [compound 136, N-4-(1-(2,3-dichlorophenylsulfonamido)cyclopropanecarboxyamido)adamantane-1-carboxyamide]
0.015 µM | 0.04 µM | Cc1c(Cl)cccc1S(=O)(=O)NC1(C(=O)NC2C3CC4CC2CC(C(N)=O)(C4)C3)CCC1 (stereo not drawn) [compound 149, N-4-(1-(2-methyl-3-chlorophenylsulfonamido)cyclobutanecarboxyamido)adamantane-1-carboxyamide]
0.021 µM | 0.099 µM | NC(=O)C12CC3CC(C1)C(NC(=O)C1(NS(=O)(=O)c4ccccc4Cl)CCC1)C(C3)C2 (stereo not drawn) [compound 152, N-4-(1-(2-chlorophenylsulfonamido)cyclobutanecarboxyamido)adamantane-1-carboxyamide]
0.058 µM | 0.459 µM | NC(=O)C12CC3CC(C1)C(NC(=O)C1(NS(=O)(=O)c4ccc(Cl)cc4Cl)CCC1)C(C3)C2 (stereo not drawn) [compound 153, N-4-(1-(2,4-dichlorophenylsulfonamido)cyclobutanecarboxyamido)adamantane-1-carboxyamide]
0.024 µM | 0.145 µM | NC(=O)C12CC3CC(C1)C(NC(=O)C1(NS(=O)(=O)c4ccccc4Br)CCC1)C(C3)C2 (stereo not drawn) [compound 155, N-4-(1-(2-bromophenylsulfonamido)cyclobutanecarboxyamido)adamantane-1-carboxyamide]
0.046 µM | 0.138 µM | Cc1ccccc1S(=O)(=O)NC1(C(=O)NC2C3CC4CC2CC(C(N)=O)(C4)C3)CCC1 (stereo not drawn) [compound 156, N-4-(1-(2-methylphenylsulfonamido)cyclobutanecarboxyamido)adamantane-1-carboxyamide]
0.061 µM | 0.41 µM | NC(=O)C12CC3CC(C1)C(NC(=O)C1(NS(=O)(=O)c4ccccc4C(F)(F)F)CCC1)C(C3)C2 (stereo not drawn) [compound 157, N-4-(1-(2-trifluoromethylphenylsulfonamido)cyclobutanecarboxyamido)adamantane-1-carboxyamide]
0.018 µM | 0.058 µM | NC(=O)C12CC3CC(C1)C(NC(=O)C1(NS(=O)(=O)c4cccc(Cl)c4Cl)CCC1)C(C3)C2 (stereo not drawn) [compound 158, N-4-(1-(2,3-dichlorophenylsulfonamido)cyclobutanecarboxyamido)adamantane-1-carboxyamide]
